Laboratory results: patent publication US4605744A, “Imidazole derivatives” (Hoffmann-La Roche Inc., priority 1985, dated 1986)
Counter-ions that a name gives are not always drawn. Like-named read-outs stand apart in the source and are kept apart here.

Legend:
Type in all cases: cell-based
[1] = system: E. coli 257; assay: In vitro antibacterial activity (MIC, Mueller-Hinton broth); details: Escherichia coli, 257, E. coli 257; read-out: MIC
Description: (§1) Drug dilutions are prepared in Mueller-Hinton broth ranging from 128 to 0.008 μg/ml. The diluted agents are dispensed in 100 μl amounts into the wells of a 96-well tray and used immediately or frozen at -10° to -70° C. until needed. Using an automated inoculator, 1.5 μl of a 10^-2 dilution of an overnight culture is added to each well of the tray. The tops of the trays are then sealed using transparent tape and incubated overnight at 37° C. The trays are examined with the aid of a viewer. The lowest concentration at which no growth is observed is considered to be the minimum inhibitory concentration (MIC).

[2] = system: C. freundii 8ASM; assay: In vitro antibacterial activity (MIC); details: Citrobacter freundii, 8ASM, C. freundii 8ASM; read-out: MIC
Description: as §1

[3] = system: P. vulgaris 100; assay: In vitro antibacterial activity (MIC); details: Proteus vulgaris; P. vulgaris 100; read-out: MIC
Description: as §1

[4] = system: S. pneumoniae SC; assay: In vitro antibacterial activity (MIC); details: Streptococcus pneumoniae, read-out: MIC
Description: as §1

[5] = system: E. aerogenes 503-478; assay: In vitro antibacterial activity (MIC); details: Klebsiella aerogenes, 503478, E. aerogenes 503-478; read-out: MIC
Description: as §1

[6] = system: P. mirabilis 190; assay: In vitro antibacterial activity (MIC); details: Proteus mirabilis, 190, P. mirabilis 190; read-out: MIC
Description: as §1

[7] = system: S. marcescens S3; assay: In vitro antibacterial activity (MIC); details: Serratia marcescens; S. marcescens S3; read-out: MIC
Description: as §1

[8] = system: P. vulgaris 101; assay: In vitro antibacterial activity (MIC); details: Proteus vulgaris, 101, P. vulgaris 101; read-out: MIC
Description: as §1

[9] = system: P. aeruginosa 5712; assay: In vitro antibacterial activity (MIC); details: Pseudomonas aeruginosa; P. aeruginosa 5712; read-out: MIC
Description: as §1

[10] = system: E. cloacae 9570A; assay: In vitro antibacterial activity (MIC); details: Enterobacter cloacae
Description: as §1

[11] = system: S. marcescens 5805; assay: In vitro antibacterial activity (MIC); details: Serratia marcescens, 5805, S. marcescens 5805; read-out: MIC
Description: as §1

[12] = system: K. pneumoniae A; assay: In vitro antibacterial activity (MIC); details: Klebsiella pneumoniae, K. pneumoniae A; read-out: MIC
Description: as §1

[13] = system: S. marcescens SM; assay: In vitro antibacterial activity (MIC); details: Serratia marcescens, read-out: MIC
Description: as §1

[14] = system: S. schottmuelleri; assay: In vitro antibacterial activity (MIC); details: read-out: MIC
Description: as §1

[15] = system: S. marcescens S4; assay: In vitro antibacterial activity (MIC); details: Serratia marcescens, S4, S. marcescens S4; read-out: MIC
Description: as §1

[16] = system: P. mirabilis 2; assay: In vitro antibacterial activity (MIC)
Description: as §1

[17] = system: S. aureus 1059B; assay: In vitro antibacterial activity (MIC); details: Staphylococcus aureus, read-out: MIC
Description: as §1

[18] = system: E. cloacae 5699; assay: In vitro antibacterial activity (MIC); details: Enterobacter cloacae, 5699, E. cloacae 5699; read-out: MIC
Description: as §1

[19] = system: S. pyogenes 4; assay: In vitro antibacterial activity (MIC); details: Streptococcus pyogenes, 4, S. pyogenes 4; read-out: MIC
Description: as §1

[20] = system: S. aureus Smith; assay: In vitro antibacterial activity (MIC); details: Staphylococcus aureus, S. aureus Smith; read-out: MIC
Description: as §1

[21] = system: P. vulgaris ATCC 6380; assay: In vitro antibacterial activity (MIC); details: Proteus vulgaris, ATCC6380, P. vulgaris ATCC 6380; read-out: MIC
Description: as §1

[22] = system: S. marcescens S5; assay: In vitro antibacterial activity (MIC); details: Serratia marcescens, S5, S. marcescens S5; read-out: MIC
Description: as §1

[23] = system: K. pneumoniae 4964; assay: In vitro antibacterial activity (MIC); details: Klebsiella pneumoniae, 4964
Description: as §1

[24] = system: S. marcescens S714; assay: In vitro antibacterial activity (MIC); details: Serratia marcescens, S714, S. marcescens S714; read-out: MIC
Description: as §1

[25] = system: P. mirabilis 620A; assay: In vitro antibacterial activity (MIC); details: Proteus mirabilis, 620A
Description: as §1

[26] = system: K. pneumoniae 503-994; assay: In vitro antibacterial activity (MIC); details: Klebsiella pneumoniae, 503994, K. pneumoniae 503-994; read-out: MIC
Description: as §1

[27] = system: E. cloacae P99; assay: In vitro antibacterial activity (MIC); details: Enterobacter cloacae, P99, E. cloacae P99
Description: as §1

[28] = system: P. aeruginosa 6148B; assay: In vitro antibacterial activity (MIC); details: Pseudomonas aeruginosa, read-out: MIC
Description: as §1

[29] = system: S. marcescens S2; assay: In vitro antibacterial activity (MIC); details: Serratia marcescens; S. marcescens S2; read-out: MIC
Description: as §1

[30] = system: S. marcescens S147; assay: In vitro antibacterial activity (MIC); details: Serratia marcescens; S. marcescens S147; read-out: MIC
Description: as §1

[31] = system: P. rettgeri ATCC 9250; assay: In vitro antibacterial activity (MIC); details: Providencia rettgeri, ATCC9250, P. rettgeri ATCC 9250; read-out: MIC
Description: as §1

[32] = system: P. mirabilis 90; assay: In vitro antibacterial activity (MIC); details: Proteus mirabilis, 90, P. mirabilis 90; read-out: MIC
Description: as §1

[33] = system: P. aeruginosa 8780; assay: In vitro antibacterial activity (MIC); details: Pseudomonas aeruginosa; P. aeruginosa 8780; read-out: MIC
Description: as §1

[34] = system: E. aerogenes 83; assay: In vitro antibacterial activity (MIC)
Description: as §1

[35] = system: E. cloacae 24; assay: In vitro antibacterial activity (MIC); details: Enterobacter cloacae, 24, E. cloacae 24; read-out: MIC
Description: as §1

[36] = system: P. aeruginosa 503-820; assay: In vitro antibacterial activity (MIC); details: Pseudomonas aeruginosa, 503820; P. aeruginosa 503-820; read-out: MIC
Description: as §1

[37] = system: E. cloacae 214; assay: In vitro antibacterial activity (MIC); details: Enterobacter cloacae, 214, E. cloacae 214; read-out: MIC
Description: as §1

[38] = system: E. cloacae 9295; assay: In vitro antibacterial activity (MIC); details: Enterobacter cloacae, 9295, E. cloacae 9295; read-out: MIC
Description: as §1

[39] = system: P. aeruginosa POW 151; assay: In vitro antibacterial activity (MIC); details: Pseudomonas aeruginosa, POW151
Description: as §1

[40] = system: K. pneumoniae 8357; assay: In vitro antibacterial activity (MIC)
Description: as §1

[41] = system: K. pneumoniae 5096; assay: In vitro antibacterial activity (MIC); details: Klebsiella pneumoniae; K. pneumoniae 5096; read-out: MIC
Description: as §1

[42] = system: K. pneumoniae HE7; assay: In vitro antibacterial activity (MIC); details: Klebsiella pneumoniae; K. pneumoniae HE7; read-out: MIC
Description: as §1

[43] = system: P. mirabilis 503-1136; assay: In vitro antibacterial activity (MIC); details: Proteus mirabilis, 5031136, P. mirabilis 503-1136; read-out: MIC
Description: as §1

[44] = system: E. aerogenes 8; assay: In vitro antibacterial activity (MIC); details: Klebsiella aerogenes; E. aerogenes 8; read-out: MIC
Description: as §1

Question: Which results are given for `Cc1nccn1CCCC1CCN(C=N[C@@H]2C(=O)N3[C@@H]2SC(C)(C)[C@@H]3C(=O)O)CC1` [F, [2S-(2alpha,5alpha,6beta)]-3,3-dimethyl-6-[[[4-[3-(2-methyl-1H-imidazol-1-yl)propyl]-1-piperidinyl]methylene]amino]-7-oxo-4-thia-1-azabicyclo[3.2.0]heptane-2-carboxylic acid 1.15 molar hydrochloride 1.75 molar hydrate]?
Answer: MIC [1]: 0.125 µg/mL; MIC [2]: 0.062 µg/mL; MIC [3]: 16 µg/mL; MIC [4]: 1 µg/mL; MIC [5]: 4 µg/mL; MIC [6]: 0.25 µg/mL; MIC [7]: 0.25 µg/mL; MIC [8]: 16 µg/mL; MIC [9]: > 128 µg/mL; MIC ([10]; 9570A): 0.25 µg/mL; MIC [11]: 0.5 µg/mL; MIC [12]: 0.031 µg/mL; MIC [13]: 0.125 µg/mL; MIC [14]: 0.062 µg/mL; MIC [15]: 2 µg/mL; MIC ([16]; Proteus mirabilis, 2): 0.5 µg/mL; MIC [17]: 64 µg/mL; MIC [18]: 0.25 µg/mL; MIC [19]: 0.5 µg/mL; MIC [20]: 8 µg/mL; MIC [21]: 0.25 µg/mL; MIC [22]: 1 µg/mL; MIC [23]: 32 µg/mL; MIC [24]: 1 µg/mL; MIC ([25]; P. mirabilis 620A, read-out: MIC): 16 µg/mL; MIC [26]: 2 µg/mL; MIC [27]: 0.125 µg/mL; MIC [28]: > 128 µg/mL; MIC [29]: 0.25 µg/mL; MIC [30]: 0.25 µg/mL; MIC [31]: 0.25 µg/mL; MIC [32]: 0.5 µg/mL; MIC [33]: > 12 µg/mL; MIC ([34]; Klebsiella aerogenes, 83): 16 µg/mL; MIC [35]: 0.25 µg/mL; MIC [36]: > 128 µg/mL; MIC [37]: 0.125 µg/mL; MIC [38]: 0.25 µg/mL; MIC [39]: > 128 µg/mL; MIC ([40]; Klebsiella pneumoniae, 8357): 1 µg/mL; MIC [41]: 64 µg/mL; MIC [42]: > 128 µg/mL; MIC [43]: 8 µg/mL; MIC [44]: 32 µg/mL

Question: Which results are given for `CC1(C)S[C@@H]2[C@H](N=CN3CCC(CCCn4ccnc4N)CC3)C(=O)N2[C@H]1C(=O)O` [I, [2S-(2alpha,5alpha,6beta)]-6-[[[4-[3-(2-amino-1H-imidazol-1-yl)propyl]piperidinyl]methylene]amino]-3,3-dimethyl-7-oxo-4-thia-1-azabicyclo[3.2.0]hpetane-2-carboxylic acid hydrochloride]?
Answer: MIC [1]: 0.031 µg/mL; MIC [2]: 0.031 µg/mL; MIC [3]: 4 µg/mL; MIC [4]: 4 µg/mL; MIC [5]: 1 µg/mL; MIC [6]: 0.125 µg/mL; MIC [7]: 0.062 µg/mL; MIC [8]: 128 µg/mL; MIC [9]: > 128 µg/mL; MIC ([10]; read-out: MIC): 0.125 µg/mL; MIC [11]: 0.25 µg/mL; MIC [12]: < 0.008 µg/mL; MIC [13]: 0.062 µg/mL; MIC [14]: 0.031 µg/mL; MIC [15]: 0.25 µg/mL; MIC ([16]; Proteus mirabilis, 2, P. mirabilis 2, read-out: MIC): 0.25 µg/mL; MIC [17]: 64 µg/mL; MIC [18]: 0.062 µg/mL; MIC [19]: 1 µg/mL; MIC [20]: 16 µg/mL; MIC [21]: 0.062 µg/mL; MIC [22]: 0.25 µg/mL; MIC [23]: 0.25 µg/mL; MIC [24]: 0.125 µg/mL; MIC [25]: 32 µg/mL; MIC [26]: 0.062 µg/mL; MIC [27]: 0.031 µg/mL; MIC [28]: 128 µg/mL; MIC [29]: 0.062 µg/mL; MIC [30]: 0.062 µg/mL; MIC [31]: 0.25 µg/mL; MIC [32]: 4 µg/mL; MIC [33]: > 128 µg/mL; MIC ([34]; Klebsiella aerogenes, 83, E. aerogenes 83, read-out: MIC): 1 µg/mL; MIC [35]: 0.125 µg/mL; MIC [36]: 128 µg/mL; MIC [37]: 0.062 µg/mL; MIC [38]: 0.125 µg/mL; MIC [39]: > 128 µg/mL; MIC ([40]; Klebsiella pneumoniae, 8357, K. pneumoniae 8357, read-out: MIC): 0.062 µg/mL; MIC [41]: > 128 µg/mL; MIC [42]: > 128 µg/mL; MIC [43]: 4 µg/mL; MIC [44]: 128 µg/mL
